Laboratory results as given in patent US9850247B2 (Almac Discovery Limited, priority 2013, dated 2017).

What was measured:
Wee-1 kinase = target: T1, Wee-1 kinase (Homo sapiens, UniProt P30291); test: Measurement of Wee-1 kinase activity (ADP-Glo luminescent kit); assay type: biochemical
T1 construct: purchased Invitrogen PV3817
How it was run: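 Activated Wee-1 was pre-incubated 30 min at RT with compound in 40 mM Tris-HCl, 20 mM MgCl2, 0.1 mg/mL BSA and 2 mM DTT. The reaction was started with an aliquot of 2.0 μg/mL poly(Lys,Tyr 4:1) plus 30 μM ATP and run 1 h at RT. ADP-Glo luminescence gave IC50 by non-linear fit.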

[1] = tested on: phospho-cdc2 (Tyr15) in HT-29 cells; test: Effect on Cdc2 phosphorylation at Tyr15, Cell-Based ELISA Base Kit (Method 3); conditions: Homo sapiens, HT-29, 8 h, eight hours incubation, normalized to total cdc2, read-out: HT29 pCDC2 method 3
How it was run: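 HT-29 cells were treated with compounds for 8 h at 37 °C, then fixed in 4% formaldehyde. Phospho-cdc2 (Tyr15) and total cdc2 were read by dual-fluorogenic cell-based ELISA at 600/450 nm. Phospho signal was normalized to total cdc2 and expressed as % of DMSO control, and EC50 came from non-linear regression.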

[2] = CLint estimates using human liver microsomes (Method 4); assay type: in vitro ADME; conditions: pH 7.4, 1 μM compound, read-out: Mics - CLint (HLM CLint)
How it was run: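 Compound at 1 μM (0.1% DMSO) incubated with human liver microsomes (0.5 mg protein/mL) in 0.1 M phosphate pH 7.4 at 37 °C, started with 1 mM NADPH. Samples taken 2–50 min, quenched in methanol, measured by LC/MS/MS (MRM). Half-life and CLint derived from the slope of ln peak area versus time.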

T1 sequence (P30291 whole entry): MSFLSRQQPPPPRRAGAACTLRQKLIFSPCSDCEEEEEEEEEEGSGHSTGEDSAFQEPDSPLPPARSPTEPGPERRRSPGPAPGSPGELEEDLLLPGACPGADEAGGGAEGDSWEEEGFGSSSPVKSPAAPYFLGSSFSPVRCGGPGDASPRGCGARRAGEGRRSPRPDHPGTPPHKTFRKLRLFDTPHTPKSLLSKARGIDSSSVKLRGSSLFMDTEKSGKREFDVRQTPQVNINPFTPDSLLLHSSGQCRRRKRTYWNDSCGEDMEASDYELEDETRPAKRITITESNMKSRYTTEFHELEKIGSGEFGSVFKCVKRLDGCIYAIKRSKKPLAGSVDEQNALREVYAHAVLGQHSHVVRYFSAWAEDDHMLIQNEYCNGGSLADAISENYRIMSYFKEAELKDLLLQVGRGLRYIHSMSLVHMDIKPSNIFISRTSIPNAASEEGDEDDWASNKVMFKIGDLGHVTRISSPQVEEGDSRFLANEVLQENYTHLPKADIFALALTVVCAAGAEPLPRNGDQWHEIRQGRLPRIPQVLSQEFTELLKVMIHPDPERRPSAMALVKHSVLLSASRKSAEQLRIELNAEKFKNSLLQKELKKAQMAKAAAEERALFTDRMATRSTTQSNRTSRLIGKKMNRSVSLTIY

| IC50 (Wee-1 kinase) [nM] | microsomal CLint at 1 μM [2] [µL/min/mg] | Compound | EC50 [1] [nM] |
| --- | --- | --- | --- |
| ≤ 10 | 15 to 50 | CN1CN(c2c(Cl)cccc2Cl)C(=O)c2cnc(Nc3ccc(N4CCNCC4)cc3)nc21 [Example 1, 3-(2,6-Dichlorophenyl)-1-methyl-7-((4-(piperazin-1-yl)phenyl)amino)-2,3-dihydropyrimido[4,5-d]pyrimidin-4(1H)-one] | 100 to 1000 |
| ≤ 10 | 15 to 50 | C[C@@H]1CN(c2ccc(Nc3ncc4c(n3)N(C)CN(c3c(Cl)cccc3Cl)C4=O)cc2)[C@@H](C)CN1 [Example 80, 3-(2,6-dichlorophenyl)-7-((4-((2S,5R)-2,5-dimethylpiperazin-1-yl)phenyl)amino)-1-methyl-2,3-dihydropyrimido[4,5-d]pyrimidin-4(1H)-one] | 100 to 1000 |
